Laboratory results taken from patent US20250114311A1, “IONIZABLE CATIONIC COMPOUNDS FOR MESSENGER RNA DELIVERY” (SEQIRUS INC., priority 2021, published 2025).

What was measured:
Balb/c mice = assay: Mouse immunogenicity study, antigen-specific T cells by intracellular cytokine staining; assay type: in vivo; settings: prime-boost, LNPs with saRNA expressing H5 and N1, peptide stimulation, FIG. 6
BHK-V cells = assay: In vitro potency of saRNA-LNPs (antigen-expressing cells, flow cytometry); assay type: cell-based; settings: FIG. 3
Protocol: The ability of the saRNA-LNPs to transfect cultured cells was characterized using an in vitro assay based on the percentage of cells expressing the antigen of interest. Specifically, 1 million BHK-V cells were co-incubated with saRNA-LNP of varying concentration (highest 50 ng per well, lowest 0.39 ng per well) in 0.3 mL of media for 17-19 hours at 37° C. with 5% CO2. Subsequently, the cells were scraped from the dish to form a single-cell suspension, fixed and permeabilized (BD Cytofix/Perm kit), and then stained with fluorophore-labeled antigen-specific antibodies against H5 and N1 (for saRNA expressing both H5 and N1). Luciferase expression was not measured for saRNA expressing both H5 and luciferase. The percentage of single or double antigen positive cells was quantified using a BD Accuri flow cytometer. […] The slope of that line multiplied by −100,000 was reported as the LNP potency. Alternatively, a similar assay was performed in a 96-well using BHK-21 cells and analysed using a Cytation 5 Cell Imaging Multimode Reader (Agilent). The results of this assay were analysed in the same way as described for the flow cytometry assay.

[1] = TNS fluorescence apparent pKa protocol for saRNA-LNP; assay type: physicochemical; settings: saRNA-LNPs, TNS 6 μM, to 9.5, 25° C., EC50 of sigmoidal curve
Protocol: In a black 96-well plate, solutions of saRNA-LNP (final assay concentration 2 μg/mL total RNA) in a series of buffers ranging from pH 4 to 9.5 were prepared. Buffers between pH4 to 7.6 were prepared from disodium phosphate and citric acid. Buffers from 7.8 to 9.5 were prepared by titrating tris buffer with 10 N sodium hydroxide. To each well was added 6-(p-Toluidino)-2-naphthalenesulfonic acid sodium salt (TNS) in water to a final assay concentration of 6 μM. The fluorescence was read on a plate reader at 25° C. with an excitation setting of 321 nm and an emission setting of 445 nm. The intensity values were plotted as a function of pH using GraphPad Prism and were fit with a sigmoidal dose response curve. The apparent pKa was determined as the EC50 of this curve where half of the ionizable amines are expected to be protonated.

## CCCCCCCCCC(CCCCCCCCC(=O)OCC(CCCC)CCCCCC)OC(=O)CCCN(C)C (stereo not shown) [Compound 11]
Balb/c mice
  activated antigen-specific CD8 T cells: measurable levels
BHK-V cells; both saRNA constructs examined
  LNP potency (in vitro), comparison of the two LNPs: trended higher in potency
BHK-V cells; saRNA-LNP, 17-19 hours
  ability to transfect BHK-V cells in vitro: able to transfect
[1]
  pKa: 6.25
